Tests used:
[1] = test system: human prostate cancer cell PC-3 transplanted into nude mice; assay: Therapeutic activity against human prostate cancer cell PC-3 transplanted into nude mice; type: in vivo, BALB/Ca nude mice; conditions: for TV d24 / T/C (%) / RTV / TV d0: dl/3.5 w, i.p; for TV d24: 24th day; for T/C (%): relative tumor proliferation rate; for RTV: relative tumor volume Vt/V0; for TV d0: tumor volume at start of administration
Procedure: The therapeutic activity experiment of compound A against human prostate cancer cell PC-3 transplanted into nude mice was conducted by SHANGHAI INSTITUTE OF MATERIA MEDICA, CHINESE ACADEMY OF SCIENCES, under assignment by SHANGHAI HUATUO MEDICAL SCIENCE CO., LTD.
Tested Compound: Compound A.
Positive control medicine: mitomycin (MMC), produced by Kyowa Hakko kogyo Co Ltd. (batch no: 468AEF, 2 mg/bottle), was diluted with physiological saline when used.
Animal and transplanted tumor: BALB/Ca nude mice, female, 45˜50 days old, weight 20±1 g. The transplanted tumor of human prostate cancer cell PC-3 in nude mice was established by inoculating the nude mice with PC-3 cell line subcutaneously.
TV (mm^3) is the tumor volume, and the calculation equation is: TV=½×a×b^2, wherein a and b represent length and width respectively. d0 is the tumor volume measured as medicine is administered in divided cages, and d24 is the tumor volume on the 24th day of the experiment. RTV is the relative tumor volume, and the calculation equation is RTV=Vt/V0, wherein V0 is the tumor volume measured as medicine is administered in divided cages (i.e. d0), Vt is the tumor volume measured every time. The evaluation index of the antitumor activity is the relative tumor proliferation rate T/C (%) and the calculation equation is as follows: T/C(%)=(TRTV/CRTV)×100
TRTV: RTV of the therapeutic group; CRTV: RTV of the negative control group.
Evaluation standard of therapeutic effect: T/C (%)>60% is ineffective, T/C (%)≦60 and with a statistic result of p<0.05 represents effective.

[2] = Stability assay of compound A during the preparation of the injection (HPLC peak area); type: physicochemical; conditions: for peak area: 210 nm
Procedure: Experimental conditions: the chromatography column was DIKMA C18 column (5μ, 250×4.6 mm); the detector was Agilent 1100 DAD detector; the detection wavelength was 210 nm; the liquid phase was acetonitrile-0.02M KH2PO4 (which contains 1‰ of tetrabutylammonium hydroxide, and the pH was adjusted to 7.35 with triethylamine) (35:65); the flow speed was 1 ml/min; and sample amount was 20 μl.
Sample: the solutions in each step of the preparation of the injection of compound A in example 6
Experimental data: the peak area of the solution before filtering with micro-pore filter film was 1084.4, the peak area after filtering was 1078.2, and the peak area after the moist heat sterilization was 1072.9.

[3] = Stability assay of compound A at meta-acidic or meta-alkalescence condition (HPLC peak area); type: physicochemical; conditions: 2 hours
Procedure: Experimental conditions: the chromatography column was DIKMA C18 column (5μ, 250×4.6 mm); The detector was Waters 3487 detector; the detection wavelength was 210 nm; the liquid phase was acetonitrile-0.02M KH2PO4 (which contains 1‰ tetrabutylammonium hydroxide, and the pH was adjusted to 7.35 with triethylamine) (35:65); and the flow speed was 1 ml/min.
Experimental method: the compound A was formulated into a solution of about 5 mg/ml with distilled water. 0.1 ml of the solution was added into the following solutions respectively: a) 1 ml of HCl diluted solution with a pH of 2; b) 1 ml of distilled water; c) 1 ml of sodium carbonate diluted solution with a pH of 10. After left standing at room temperature for 2 hours, 0.1 ml of each the above three kinds of solution were added into 1 ml of liquid phase solution, respectively, and 20 μl was sampled and injected into the chromatograph. The peak areas were then determined and calculated.

| Compound | TV d24 ([1]; 5 mg/kg) [mm^3] | T/C (%) ([1]; 5 mg/kg) | RTV ([1]; 5 mg/kg) | TV d0 ([1]; 5 mg/kg) [mm^3] | stability during the injection preparation [2] | peak area ([2]; after filtering) | peak area ([2]; after the moist heat sterilization (116° C., 30 min)) | peak area ([2]; solution before filtering with micro-pore filter film) | TV d24 ([1]; 3 mg/kg) [mm^3] | T/C (%) ([1]; 3 mg/kg) | RTV ([1]; 3 mg/kg) | TV d0 ([1]; 3 mg/kg) [mm^3] | inhibition of the growth of human prostate cancer cell PC-3 transplanted into nude mice ([1]; mouse, in vivo) | Percentage (based on the peak area in distilled water taken as 100%) ([3]; Distilled water (reference), room temperature) [%] | peak area ([3]; Distilled water, room temperature) | stability at both meta-acidic condition and meta-alkalescence condition ([3]; pH 2 and pH 10, room temperature) | peak area ([3]; pH = 2 (HCl diluted solution), room temperature) | Percentage (based on the peak area in distilled water taken as 100%) ([3]; pH = 2, room temperature) [%] | peak area ([3]; pH = 10 (sodium carbonate diluted solution), room temperature) | Percentage (based on the peak area in distilled water taken as 100%) ([3]; pH = 10, room temperature) [%] |
| --- | --- | --- | --- | --- | --- | --- | --- | --- | --- | --- | --- | --- | --- | --- | --- | --- | --- | --- | --- | --- |
| CO[C@@]12[C@H](COC(N)=O)C3=C(C(=O)C(C)=C(N)C3=O)N1C[C@@H]1N[C@@H]12 [mitomycin, reference compound] | 400 ± 224 | 33.7 | 3.1 ± 1.8 | 135 ± 42 | – | – | – | – | – | – | – | – | – | – | – | – | – | – | – | – |
| Cc1c(O)c(O)cc2c1C(S(=O)(=O)[O-])C=C1[C@@]2(C)CC[C@@]2(C)[C@@H]3C[C@](C)(C(=O)O)CC[C@]3(C)CC[C@]12C.[Na+] (some centres unmarked) [Compound A] | – | – | – | – | good | 1078.2 | 1072.9 | 1084.4 | 501 ± 133 | 40.2 | 3.8 ± 1.1 | 135 ± 16 | marked inhibition effects | 100 | 1206926 | good stability | 1247385 | 103.4 | 1232216 | 102.1 |
